According to US20240299376A1, “METHOD OF TREATING A CONDITION USING A […] EFFECTIVE DOSE OF 1-(1-OXO-1,2-DIHYDROISOQUINOLIN-5-YL)-5-(TRIFLUOROMETHYL)-N-(2-(TRIFLUOROMETHYL)PYRIDIN-4-YL)-1H-PYRAZOLE-4-CARBOXAMIDE” (Janssen Pharmaceutica NV, priority 2021, published 2024):

Tests used:
[1] = tested on: IL-6 secretion by OCI-LY3 ABC-DLBCL cells; assay: IL-6 secretion assay (MesoScale Discovery); assay type: cell-based; details: Homo sapiens; supernatants of OCI-LY3 cells, 16 independent experiments
Description: (§1) NF-κB signaling regulates the secretion of multiple cytokines, including interleukin (IL)-6 and IL-10. Libermann T A et al. Mol Cell Biol. 1990; 10(6):3155-3162; and Cao S, et al. J Biol Chem. 2006; 281(36):26041-26050. Secretion of the cytokines IL-6 and IL-10 by OCI-LY3 ABC-DLBCL cells was measured using a MesoScale Discovery (MSD) assay.

[2] = 14-day oral toxicity study toxicokinetics in dogs (beagles); assay type: in vivo, dog; details: for Cmax: female, beagle, dog, in vivo, po, 250 mg/kg/day
Description: Repeated-dose PK (toxicokinetics) were obtained as part of the repeated oral dose toleration toxicity studies in rats and dogs.
However, there was no increase in the exposure parameters at 250 mg/kg/day from the first day of dosing until Day 7 when the dose group was terminated.

[3] = tested on: IL-10 secretion by OCI-LY3 ABC-DLBCL cells; assay: IL-10 secretion assay (MesoScale Discovery); assay type: cell-based; details: Homo sapiens; supernatants of OCI-LY3 cells, 16 independent experiments
Description: as §1

[4] = Serum concentration after 28 days of oral dosing in male OCI-LY3 tumor-bearing NSG mice; assay type: in vivo; details: mouse, mean; for concentration at 1 h: 1 h post last dose; for concentration at 2 h: 2 h post last dose; for concentration at 4 h: 4 h post last dose; for concentration at 8 h: 8 h post last dose; for concentration at 12 h: 12 h post last dose; for concentration at 0.25 h: 0.25 h post last dose
Description: For study 3, animals were randomly assigned into treatment groups, when the OCI-LY3 mean tumor volume was 164 mm^3 (Day 32 post-tumor cell implantation). Treatment was initiated on the day of randomization (Day 32). After 28 days of treatment on Day 60, serum was collected at 2, 4, and 12 hours post last dose for the bid treated groups or 2, 4 and 24 hours post last dose for qd treated groups in cohorts of 5 mice. Blood was collected from the retro-orbital sinus and submitted for bioanalytical analysis.
Serum samples were collected at 1, 2, 4, 8, and 12 hours post dose (for twice-daily-treated animals) or 24 hours (for once-daily-treated animals).

[5] = tested on: OCI-LY10 human DLBCL xenografts; assay: Antitumor efficacy in established OCI-LY10 human DLBCL xenografts; assay type: in vivo, NSG mice; details: 3.5 weeks
Description: Tumor volume was calculated using the formula: tumor volume (mm^3)=(Dxd^2/2); where ‘D’ represents the larger diameter, and ‘d’ the smaller diameter of the tumor as determined by caliper measurements. Tumor volume data was graphically represented as the mean tumor volume±SEM.
Percent tumor growth inhibition (TGI) was defined as the difference between mean tumor volumes of the treated and control group, calculated as
where TVc is the mean tumor volume of a given control group and TVt is the mean tumor volume of the treatment group. As defined by National Cancer Institute criteria, ≥60% TGI is considered biologically significant.
Group tumor volumes are graphed as the mean+SEM. Mice were implanted SC on the right flank on Day 0.
OCY-LY10 cells were maintained at 37° C. in a humidified atmosphere (5% CO2, 95% air), in RPMI-1640 medium with GlutaMAX™, supplemented with 10% Fetal Bovine Serum (Heat Inactivated at 57° C.) and 1% Penicillin-Streptomycin. Each mouse received 1×10^6 OCI-LY10 cells in serum-free RPMI-1640 medium with Matrigel in 1:1 ratio in a total volume of 0.2 mL. Cells were implanted SC in the right flank using a 1 mL syringe and a 26-gauge needle. The day of tumor implantation was designated as Day 0.
For study 4, study animals were randomly assigned into treatment groups, when the mean OCI-LY10 tumor volume reached 169 mm^3 (Day 15 post-tumor cell implantation). Treatment was initiated the day after randomization (Day 16). Treatment for the antitumor efficacy study lasted for 24 days until Day 40, when most animals in the Vehicle control group reached ethical tumor volume limits. […] Blood was collected from the retro-orbital sinus and submitted for bioanalytical analysis.

[6] = Serum concentration after 28 days of oral dosing in male OCI-LY3 tumor-bearing NSG mice; assay type: in vivo; details: mouse, mean; for concentration at 0.25 h: 0.25 h post last dose
[7] = Day 1, 10 to 50 mg/kg/day (5-fold increase in dose)
[8] = Day 1, 10 to 250 mg/kg/day (25-fold increase in dose)

Structure (SMILES): O=C(Nc1ccnc(C(F)(F)F)c1)c1cnn(-c2cccc3c(=O)[nH]ccc23)c1C(F)(F)F [Compound A, 1-(1-oxo-1,2-dihydroisoquinolin-5-yl)-5-(trifluoromethyl)-N-[2-(trifluoromethyl)pyridin-4-yl]-1H-pyrazole-4-carboxamide]
- IC50 [1]: 114 ± 41 nM
- increase in AUC0-24h with dose [2, 7]: 5.8 fold
- increase in Cmax with dose [2, 7]: 5.5 fold
- increase in AUC0-24h with dose [2, 8]: 23 fold
- increase in Cmax with dose [2, 8]: 20 fold
- relation of single doses to maximum tolerated dose (MTD) ([2]; escalated single oral doses vs MTD upon 14 days of dosing in dogs): greater than the maximum tolerated dose (MTD) upon 14 days of dosing in dogs
- toxicity findings ([2]; female beagles, 10, 50, and 250 mg/kg/day PO for 14 days): moribundity and mortality resulted in early termination of the 50 and 250 mg/kg dose groups
- Cmax [2]: 263,000 ng/mL
- Cmax ([2]; Cmax): 290000 ng/mL
- IC50 [3]: 77 ± 24 nM
- concentration at 1 h ([4]; 1 mg/kg BID PO 28 days): 550 ng/mL
- concentration at 2 h ([4]; 1 mg/kg BID PO 28 days): 449 ng/mL
- concentration at 4 h ([4]; 1 mg/kg BID PO 28 days): 526 ng/mL
- concentration at 8 h ([4]; 1 mg/kg BID PO 28 days): 721 ng/mL
- concentration at 12 h ([4]; 1 mg/kg BID PO 28 days): 307 ng/mL
- concentration at 0.25 h ([4]; 3 mg/kg BID PO 28 days): 1020 ng/mL
- concentration at 1 h ([4]; 3 mg/kg BID PO 28 days, N = 2): 1940 ng/mL
- concentration at 2 h ([4]; 3 mg/kg BID PO 28 days): 1560 ng/mL
- concentration at 4 h ([4]; 3 mg/kg BID PO 28 days): 1150 ng/mL
- concentration at 8 h ([4]; 3 mg/kg BID PO 28 days, N = 2): 2680 ng/mL
- concentration at 12 h ([4]; 3 mg/kg BID PO 28 days): 1020 ng/mL
- concentration at 0.25 h ([4]; 10 mg/kg BID PO 28 days): 4050 ng/mL
- concentration at 1 h ([4]; 10 mg/kg BID PO 28 days): 5080 ng/mL
- concentration at 2 h ([4]; 10 mg/kg BID PO 28 days): 4600 ng/mL
- concentration at 4 h ([4]; 10 mg/kg BID PO 28 days): 6250 ng/mL
- concentration at 8 h ([4]; 10 mg/kg BID PO 28 days): 5500 ng/mL
- concentration at 12 h ([4]; 10 mg/kg BID PO 28 days): 4170 ng/mL
- concentration at 0.25 h ([4]; 30 mg/kg BID PO 28 days): 5970 ng/mL
- concentration at 1 h ([4]; 30 mg/kg BID PO 28 days): 11400 ng/mL
- concentration at 2 h ([4]; 30 mg/kg BID PO 28 days): 12300 ng/mL
- concentration at 4 h ([4]; 30 mg/kg BID PO 28 days): 10400 ng/mL
- concentration at 8 h ([4]; 30 mg/kg BID PO 28 days): 14700 ng/mL
- concentration at 12 h ([4]; 30 mg/kg BID PO 28 days): 9000 ng/mL
- concentration at 1 h ([4]; 60 mg/kg QD PO 28 days): 9270 ng/mL
- concentration at 2 h ([4]; 60 mg/kg QD PO 28 days): 16000 ng/mL
- concentration at 4 h ([4]; 60 mg/kg QD PO 28 days): 11400 ng/mL
- concentration at 24 h ([4]; 60 mg/kg QD PO 28 days, 24 h post last dose): 2510 ng/mL
- concentration at 0.25 h ([4]; 100 mg/kg BID PO 28 days): 16500 ng/mL
- concentration at 1 h ([4]; 100 mg/kg BID PO 28 days): 21200 ng/mL
- concentration at 2 h ([4]; 100 mg/kg BID PO 28 days): 21600 ng/mL
- concentration at 4 h ([4]; 100 mg/kg BID PO 28 days): 12800 ng/mL
- concentration at 8 h ([4]; 100 mg/kg BID PO 28 days): 20500 ng/mL
- concentration at 12 h ([4]; 100 mg/kg BID PO 28 days): 10300 ng/mL
- TGI ([5]; 3 mg/kg BID PO, not statistically significant): 11%
- TGI ([5]; 10 mg/kg BID PO): 41%
- TGI ([5]; 30 mg/kg BID PO): 54%
- TGI ([5]; 100 mg/kg BID PO): 62%
- concentration at 0.25 h ([6]; 1 mg/kg BID PO 28 days): 323 ng/mL
- concentration at 0.25 h ([6]; 60 mg/kg QD PO 28 days): 6990 ng/mL
- concentration at 8 h ([6]; 60 mg/kg QD PO 28 days, 8 h post last dose): 10600 ng/mL
